Test results as given in patent publication US10576092B1, “Doxorubicin derivatives and uses thereof” (S.S.Manufacturing Co. Ltd, priority 2019, dated 2020).

Assays:
MCF-7 cells [1] = experiment: Fluorescent microscopy of subcellular distribution; format: cell-based, human; conditions: 120 μg/ml, observed at 60, 120 and 360 minutes
Experimental: Low numbers of MCF-7 cells were seeded into 8-well plate (3,000 cells/well) overnight.

MCF-7 cells [2] = experiment: Induction of MCF-7 cell apoptosis; format: cell-based, human
MCF-7 cells [3] = experiment: Cytosolic oxidative stress; format: cell-based, human
MCF-7 cells [4] = experiment: Cell cycle analysis; format: cell-based, human
MCF-7 cells [5] = experiment: MTT (WST-1) assay for cytotoxicity effect of compound A on tumor cells; conditions: 24 hours treatment
Experimental: The human breast cancer cell line, MCF-7, was obtained from American Type Cell Collection (ATCC) (Rockville, Mo., U.S.A.). The cells were cultured to 70-80% confluence in Dulbecco's modified Eagle medium (DMEM) (Gibco, Grand Island, N.Y., U.S.A.) with 10% fetal bovine serum (FBS) (Gibco) at 37° C. and 5% CO2. MCF-7 cells were plated overnight in a 96-well plate (4,000 cells per well). […] Next, 10 μl/well of WST-1/ECS solution from the Quick Cell Proliferation Colorimetric Assay Kit (BioVision, Inc., Milptas, Calif., U.S.A.) was added, and the solution was incubated for 2 hours at 37° C. and 5% CO2. […] The half maximal inhibitory concentrations (IC50s) were calculated from linear regression from the absorbance optical density (OD) of each triplicate concentration.

Experimental for Lipid solubility in oil: The suspended were vortexed and centrifuged at 3000 RPM, 10 mins periodically. Oil solvent volume was stepwise increased till completely soluble was observed and the soluble concentration were determined (Table1). The solutions were left at 24° C. overnight and were centrifuged at 5000 RPM for 20 mins. […] The suspensions were vigorously vortex and left at room temperature.

Solubility in Oil (40° C.) (Lipid solubility in oil; Canola Oil)	Solubility in Oil (40° C.) (Lipid solubility in oil; Ethiodized Oil)	Solubility in Oil (40° C.) (Lipid solubility in oil; Olive Oil)	Compound	entry into the nucleus (subcellular distribution) (MCF-7 cells [1])	induction of MCF-7 cell apoptosis (MCF-7 cells [2])	cytosolic oxidative stress (MCF-7 cells [3])	interference with the cell cycle (MCF-7 cells [4])	IC60 (MCF-7 cells [5]) [µg/mL]
less than 0.0001 mg/100 ml	less than 0.0001 mg/100 ml	less than 0.0001 mg/100 ml	COc1cccc2c1C(=O)c1c(O)c3c(c(O)c1C2=O)C[C@@](O)(C(=O)CO)C[C@@H]3O[C@H]1C[C@H](N)[C@H](O)[C@H](C)O1 [Doxorubicin]	–	–	–	–	–
–	–	–	((3bS)-7-hydroxy-11a-methyl-1H,2H,3H,3aH,3bH,4H,5H,9bH,10H,11H,11aH-cyclopenta[a]phenanthren-1-yl N-[(2S,3S,6R)-3-hydroxy-2-methyl-6-{[(1S,3S)-3,5,12-trihydroxy-3-(2-hydroxyacetyl)-10-methoxy-6,11-dioxo-1,2,3,4,6,11-hexahydrotetracen-1-yl]oxy}oxan-4-yl]carbamate) [Compound A]	without entering the nucleus	rapidly induced MCF-7 cell apoptosis	increased cytosolic oxidative stress	did not interfere with the cell cycle	~120
